Measured values from the NIST ThermoML archive (doi:10.1021/acs.jced.8b00063).
Where “and” joins values, the source holds several entries; their conditions need not be identical. Identical values can stand only once. Numbers after ± are expanded uncertainties.

Legend:
[1] = Liquid, Ebulliometric method (Recirculating still)
[2] = refractive index (Na D-line) (dimensionless); settings: Liquid, Standard Abbe refractometry
[3] = refractive index (Na D-line) (dimensionless); xn = mol fraction of the nth substance listed; settings: 293.15 K, 93.9 kPa, Liquid, Standard Abbe refractometry

CC(=O)OC(C)C [1-methylethyl ethanoate]
Settings	vapor or sublimation pressure [kPa]
[1], 359.68 K	93.9 ± 1

[2]
Settings	refractive index
293.15 K, 93.9 kPa	1.3774 ± 0.006
298.15 K, 101.33 kPa	1.37739 ± 0.006

CC(=O)OC(C)C [1-methylethyl ethanoate] + COc1ccccc1
[3]
Settings	refractive index
x1 = 0.1058	1.5013 ± 0.006
x1 = 0.1227	1.499 ± 0.006
x1 = 0.1703	1.4924 ± 0.006
x1 = 0.1794	1.4915 ± 0.006
x1 = 0.2163	1.4872 ± 0.006
x1 = 0.2803	1.4768 ± 0.006
x1 = 0.3303	1.4727 ± 0.006
x1 = 0.3684	1.4673 ± 0.006
x1 = 0.4254	1.4561 ± 0.006
x1 = 0.4928	1.4481 ± 0.006
x1 = 0.5116	1.4445 ± 0.006
x1 = 0.5769	1.4361 ± 0.006
x1 = 0.6338	1.4272 ± 0.006
x1 = 0.7247	1.4154 ± 0.006
x1 = 0.8136	1.4026 ± 0.006
x1 = 0.9006	1.3903 ± 0.006
x1 = 1	1.3774 ± 0.006

COc1ccccc1 [anisole]
Settings	vapor or sublimation pressure [kPa]
[1], 423.92 K	93.9 ± 1

[2]
Settings	refractive index
293.15 K, 93.9 kPa	1.5168 ± 0.006 and 1.5167 ± 0.006
298.15 K, 101.33 kPa	1.51554 ± 0.006

COc1ccccc1 [anisole] + CC(=O)OC(C)C
Settings	refractive index
[3], x2 = 0	1.5167 ± 0.006

COc1ccccc1 [anisole] + CCCOC(C)=O
[3]
Settings	refractive index
x2 = 0	1.5168 ± 0.006
x2 = 0.1119	1.5019 ± 0.006
x2 = 0.1399	1.4979 ± 0.006
x2 = 0.1575	1.4954 ± 0.006
x2 = 0.2187	1.4875 ± 0.006
x2 = 0.2418	1.4844 ± 0.006
x2 = 0.3387	1.4706 ± 0.006
x2 = 0.354	1.4687 ± 0.006
x2 = 0.4168	1.4603 ± 0.006
x2 = 0.4759	1.4525 ± 0.006
x2 = 0.533	1.4451 ± 0.006
x2 = 0.5833	1.4381 ± 0.006
x2 = 0.6096	1.435 ± 0.006
x2 = 0.6683	1.4268 ± 0.006
x2 = 0.7081	1.4203 ± 0.006
x2 = 0.8047	1.4093 ± 0.006
x2 = 0.8978	1.3968 ± 0.006

COc1ccccc1 [anisole] + CCOC(C)=O
[3]
Settings	refractive index
x2 = 0	1.5168 ± 0.006
x2 = 0.1318	1.5002 ± 0.006
x2 = 0.1651	1.4954 ± 0.006
x2 = 0.1818	1.4935 ± 0.006
x2 = 0.2131	1.4896 ± 0.006
x2 = 0.2301	1.4867 ± 0.006
x2 = 0.3334	1.4735 ± 0.006
x2 = 0.3472	1.4712 ± 0.006
x2 = 0.4119	1.4619 ± 0.006
x2 = 0.4709	1.4548 ± 0.006
x2 = 0.4899	1.4518 ± 0.006
x2 = 0.5481	1.4426 ± 0.006
x2 = 0.6353	1.431 ± 0.0061
x2 = 0.6467	1.4243 ± 0.0061
x2 = 0.718	1.4201 ± 0.006
x2 = 0.7382	1.4142 ± 0.006
x2 = 0.8354	1.3989 ± 0.006
x2 = 0.9091	1.3874 ± 0.006

COc1ccccc1 [anisole] + COC(C)=O
[3]
Settings	refractive index
x2 = 0	1.5168 ± 0.006
x2 = 0.1432	1.4995 ± 0.006
x2 = 0.1704	1.497 ± 0.006
x2 = 0.2986	1.4855 ± 0.006
x2 = 0.3004	1.4826 ± 0.006
x2 = 0.3323	1.4777 ± 0.006
x2 = 0.41	1.4692 ± 0.006
x2 = 0.4439	1.4625 ± 0.006
x2 = 0.5057	1.4542 ± 0.006
x2 = 0.5405	1.451 ± 0.006
x2 = 0.6003	1.4372 ± 0.006
x2 = 0.6354	1.4327 ± 0.006
x2 = 0.6972	1.4233 ± 0.006
x2 = 0.814	1.3994 ± 0.006
x2 = 0.8577	1.3909 ± 0.006
x2 = 0.9391	1.3743 ± 0.006

CCOC(C)=O [ethyl acetate]
Settings	vapor or sublimation pressure [kPa]
[1], 347.92 K	93.9 ± 1

[2]
Settings	refractive index
293.15 K, 93.9 kPa	1.3724 ± 0.006
298.15 K, 101.33 kPa	1.37244 ± 0.006

CCOC(C)=O [ethyl acetate] + COc1ccccc1
Settings	refractive index
[3], x1 = 1	1.3724 ± 0.006

COC(C)=O [methyl ethanoate]
Settings	vapor or sublimation pressure [kPa]
[1], 327.9 K	93.9 ± 1

[2]
Settings	refractive index
293.15 K, 93.9 kPa	1.3615 ± 0.006
298.15 K, 101.33 kPa	1.36146 ± 0.006

COC(C)=O [methyl ethanoate] + COc1ccccc1
Settings	refractive index
[3], x1 = 1	1.3615 ± 0.006

CCCOC(C)=O [propyl ethanoate]
Settings	vapor or sublimation pressure [kPa]
[1], 372.17 K	93.9 ± 1

[2]
Settings	refractive index
293.15 K, 93.9 kPa	1.3841 ± 0.006
298.15 K, 101.33 kPa	1.38406 ± 0.006

CCCOC(C)=O [propyl ethanoate] + COc1ccccc1
Settings	refractive index
[3], x1 = 1	1.3841 ± 0.006
